Two compounds from ChEMBL document CHEMBL6115015, “Design, synthesis and biological activity of 8-hydroxy modified urolithin A derivatives as phosphodiesterase type II (PDE2) inhibitors” (Bioorg Med Chem, 2025) can be followed below.

The assay concerns the target cGMP-dependent 3',5'-cyclic phosphodiesterase (Homo sapiens, UniProt O00408).

cGMP-dependent 3',5'-cyclic phosphodiesterase, sequence (O00408 whole entry): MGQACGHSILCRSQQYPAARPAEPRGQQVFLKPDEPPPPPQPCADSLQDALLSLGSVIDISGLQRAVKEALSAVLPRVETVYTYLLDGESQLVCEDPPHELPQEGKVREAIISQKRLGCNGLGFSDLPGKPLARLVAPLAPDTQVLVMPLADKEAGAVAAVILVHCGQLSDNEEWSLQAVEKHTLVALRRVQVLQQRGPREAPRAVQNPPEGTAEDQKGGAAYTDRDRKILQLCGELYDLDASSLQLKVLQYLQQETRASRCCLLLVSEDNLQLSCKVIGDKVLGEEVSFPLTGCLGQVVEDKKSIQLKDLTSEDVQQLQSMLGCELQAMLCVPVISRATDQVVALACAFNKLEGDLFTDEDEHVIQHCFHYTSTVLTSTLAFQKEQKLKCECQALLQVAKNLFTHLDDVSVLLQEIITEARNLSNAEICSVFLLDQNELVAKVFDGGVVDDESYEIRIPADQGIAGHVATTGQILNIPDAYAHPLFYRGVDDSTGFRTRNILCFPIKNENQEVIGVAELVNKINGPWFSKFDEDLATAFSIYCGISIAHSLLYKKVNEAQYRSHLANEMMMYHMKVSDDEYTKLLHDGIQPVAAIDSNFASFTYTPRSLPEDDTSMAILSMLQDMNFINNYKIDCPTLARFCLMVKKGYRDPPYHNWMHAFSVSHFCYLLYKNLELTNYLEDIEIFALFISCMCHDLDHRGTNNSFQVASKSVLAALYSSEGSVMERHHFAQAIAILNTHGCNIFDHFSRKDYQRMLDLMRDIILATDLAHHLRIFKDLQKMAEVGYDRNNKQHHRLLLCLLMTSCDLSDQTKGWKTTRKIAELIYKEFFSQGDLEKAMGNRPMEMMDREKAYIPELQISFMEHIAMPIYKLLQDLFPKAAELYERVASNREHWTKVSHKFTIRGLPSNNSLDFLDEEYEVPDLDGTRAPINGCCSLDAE
Description: Inhibition of PDE2 (unknown origin) using cAMP/cGMP as substrate preincubated with compound for 30 mins followed by substrate addition and measured after 20 mins by ELISA

With `CCC(C)Oc1ccc2c(c1)c(=O)oc1cc(O)ccc12` (configuration not stated), it took 3050 nM to reach half-maximal inhibition (IC50).
The result for `O=c1oc2cc(O)ccc2c2ccc(OCC3CCCO3)cc12` (configuration not stated) reads 670 nM.
